# Assay results as given in patent US20250177481A1, “SCO-spondin-derived polypeptides for enhancing synaptic transmission” (AXOLTIS PHARMA, priority 2021, published 2025).
# Where “and” joins values, the source holds several entries; their conditions need not be identical. Equal values may be shown once.
# Experiments:
# [1] = target: T1, GluN2A subunit of NMDAR (isolated evoked NMDAR currents in CA1 hippocampal neurons) (Mus musculus, UniProt P35436); assay: patch-clamp phase 1: NMDAR EPSCs with GluN2B subunits blocked by Ifenprodil; format: cell-based, C57Bl6/J mice; settings: Ifenprodil 3 μM alone; control = 100; mean of 10 cells
# T1 construct: Sagittal hippocampal brain slices were obtained using standard brain slicing methods; from tissue; host or cells: acute hippocampal slices of C57Bl6/J mice, CA1 pyramidal neurons
# T1 sequence (P35436 23-1464, other chains not shown): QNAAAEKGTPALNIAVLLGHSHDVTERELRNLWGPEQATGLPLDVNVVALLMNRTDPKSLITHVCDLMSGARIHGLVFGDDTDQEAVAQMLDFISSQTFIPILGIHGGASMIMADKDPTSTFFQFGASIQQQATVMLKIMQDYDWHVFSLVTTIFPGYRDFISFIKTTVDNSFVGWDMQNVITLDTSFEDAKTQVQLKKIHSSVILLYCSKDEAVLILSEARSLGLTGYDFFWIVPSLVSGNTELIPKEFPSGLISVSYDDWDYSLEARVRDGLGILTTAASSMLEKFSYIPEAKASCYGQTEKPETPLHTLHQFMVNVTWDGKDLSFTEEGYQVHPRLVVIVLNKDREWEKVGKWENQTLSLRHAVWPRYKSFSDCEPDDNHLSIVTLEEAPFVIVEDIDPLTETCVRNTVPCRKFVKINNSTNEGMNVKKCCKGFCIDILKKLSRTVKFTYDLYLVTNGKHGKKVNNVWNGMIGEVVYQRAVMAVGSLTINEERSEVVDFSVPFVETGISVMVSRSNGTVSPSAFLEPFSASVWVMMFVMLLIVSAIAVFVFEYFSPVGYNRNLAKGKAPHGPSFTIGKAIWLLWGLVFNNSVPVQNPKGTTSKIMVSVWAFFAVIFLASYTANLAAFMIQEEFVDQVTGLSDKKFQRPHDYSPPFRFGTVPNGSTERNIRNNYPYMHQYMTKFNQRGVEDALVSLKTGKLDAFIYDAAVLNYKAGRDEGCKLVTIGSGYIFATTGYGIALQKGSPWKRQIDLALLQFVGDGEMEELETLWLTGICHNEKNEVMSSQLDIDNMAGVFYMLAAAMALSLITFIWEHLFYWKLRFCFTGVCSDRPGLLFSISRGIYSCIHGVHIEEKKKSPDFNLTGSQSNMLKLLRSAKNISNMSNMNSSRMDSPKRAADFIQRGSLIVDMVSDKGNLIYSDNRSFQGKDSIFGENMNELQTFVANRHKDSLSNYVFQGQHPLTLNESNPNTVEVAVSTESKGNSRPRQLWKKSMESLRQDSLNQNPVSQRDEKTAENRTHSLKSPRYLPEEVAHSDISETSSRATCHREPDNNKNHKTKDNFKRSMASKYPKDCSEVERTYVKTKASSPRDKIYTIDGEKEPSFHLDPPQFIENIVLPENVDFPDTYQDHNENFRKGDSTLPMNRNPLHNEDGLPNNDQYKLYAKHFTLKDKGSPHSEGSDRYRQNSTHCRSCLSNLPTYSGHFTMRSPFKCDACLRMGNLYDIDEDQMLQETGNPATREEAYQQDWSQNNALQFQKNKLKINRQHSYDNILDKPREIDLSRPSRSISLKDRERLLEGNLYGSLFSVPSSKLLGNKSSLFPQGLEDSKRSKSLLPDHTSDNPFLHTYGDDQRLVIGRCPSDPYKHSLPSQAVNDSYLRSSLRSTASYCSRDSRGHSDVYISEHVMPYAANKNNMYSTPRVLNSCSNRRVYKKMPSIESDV
# Source text: (§1) Selective antagonists of GluN2A and GluN2B subunits were also used.
# (§2) Twelve (C57Bl6/J) male mice 4-5 weeks-old were obtained from Charles River, France and housed in an animal facility. Animal care was compliant with national and local Ethics committee recommendations. Sagittal hippocampal brain slices were obtained using standard brain slicing methods (approximately 6 slices per mouse) (Knobloch et al. 2007). Mice were anesthetized with isoflurane and then decapitated. […]
# (§3) The signal was amplified with an Axopatch 200B amplifier (Molecular Devices, Union City, CA), digitized by a Digidata 1550 interface (Molecular Devices). Recordings were acquired using Clampex 10 (Molecular Devices) and analyzed with Clampfit (Molecular Devices). […]
# (§4) A total of 12 mice was dedicated to the study. A total of 23 neurons were recorded (10 per group (phases 1 and 2) and 3 in a control phase (phase 0) as follow. In each recording session, 10 EPSCs were induced in response to Schaffer collateral stimulations. Measurements of the amplitudes (average of 10 EPCS) were assessed. Phase 0 represented a validation phase aiming at confirming that GluN2A and GluN2B were the predominant NR2 subunits involved in the EPSCs evoked by Schaffer collateral stimulation. We expected the residual current at the end of phase 0 to be minimal.
# [2] = test system: NMDA EPSCs in hippocampal CA1 pyramidal neurons; assay: patch-clamp phase 0: sequential application of NVP-AAM077 and Ifenprodil on NMDA EPSCs; format: cell-based, C57Bl6/J mice; settings: 3 cells, data not shown
# Procedure: Twelve (C57Bl6/J) male mice 4-5 weeks-old were obtained from Charles River, France and housed in an animal facility. Animal care was compliant with national and local Ethics committee recommendations. Sagittal hippocampal brain slices were obtained using standard brain slicing methods (approximately 6 slices per mouse) (Knobloch et al. 2007). Mice were anesthetized with isoflurane and then decapitated. […] Acute slices (350 μm thick) were prepared using a vibratome (VT 1000S; Leica Microsystems, Bannockburn, IL). Sections were incubated in standard aCSF at room temperature for at least 1 h before recordings. […] Recordings were acquired using Clampex 10 (Molecular Devices) and analyzed with Clampfit (Molecular Devices). […] A total of 23 neurons were recorded (10 per group (phases 1 and 2) and 3 in a control phase (phase 0) as follow. In each recording session, 10 EPSCs were induced in response to Schaffer collateral stimulations. Measurements of the amplitudes (average of 10 EPCS) were assessed. Phase 0 represented a validation phase aiming at confirming that GluN2A and GluN2B were the predominant NR2 subunits involved in the EPSCs evoked by Schaffer collateral stimulation. We expected the residual current at the end of phase 0 to be minimal.
# [3] = target: T2, GluN2B subunit of NMDAR (isolated evoked NMDAR currents in CA1 hippocampal neurons) (Mus musculus, UniProt Q01097); assay: patch-clamp phase 2: NMDAR EPSCs with GluN2A subunits blocked by NVP-AAM077; format: cell-based, C57Bl6/J mice; settings: NVP-AAM077 0.4 μM alone; control = 100; mean of 10 cells
# T2 construct: Sagittal hippocampal brain slices were obtained using standard brain slicing methods; from tissue; host or cells: acute hippocampal slices of C57Bl6/J mice, CA1 pyramidal neurons
# T2 sequence (Q01097 27-1482, other chains not shown): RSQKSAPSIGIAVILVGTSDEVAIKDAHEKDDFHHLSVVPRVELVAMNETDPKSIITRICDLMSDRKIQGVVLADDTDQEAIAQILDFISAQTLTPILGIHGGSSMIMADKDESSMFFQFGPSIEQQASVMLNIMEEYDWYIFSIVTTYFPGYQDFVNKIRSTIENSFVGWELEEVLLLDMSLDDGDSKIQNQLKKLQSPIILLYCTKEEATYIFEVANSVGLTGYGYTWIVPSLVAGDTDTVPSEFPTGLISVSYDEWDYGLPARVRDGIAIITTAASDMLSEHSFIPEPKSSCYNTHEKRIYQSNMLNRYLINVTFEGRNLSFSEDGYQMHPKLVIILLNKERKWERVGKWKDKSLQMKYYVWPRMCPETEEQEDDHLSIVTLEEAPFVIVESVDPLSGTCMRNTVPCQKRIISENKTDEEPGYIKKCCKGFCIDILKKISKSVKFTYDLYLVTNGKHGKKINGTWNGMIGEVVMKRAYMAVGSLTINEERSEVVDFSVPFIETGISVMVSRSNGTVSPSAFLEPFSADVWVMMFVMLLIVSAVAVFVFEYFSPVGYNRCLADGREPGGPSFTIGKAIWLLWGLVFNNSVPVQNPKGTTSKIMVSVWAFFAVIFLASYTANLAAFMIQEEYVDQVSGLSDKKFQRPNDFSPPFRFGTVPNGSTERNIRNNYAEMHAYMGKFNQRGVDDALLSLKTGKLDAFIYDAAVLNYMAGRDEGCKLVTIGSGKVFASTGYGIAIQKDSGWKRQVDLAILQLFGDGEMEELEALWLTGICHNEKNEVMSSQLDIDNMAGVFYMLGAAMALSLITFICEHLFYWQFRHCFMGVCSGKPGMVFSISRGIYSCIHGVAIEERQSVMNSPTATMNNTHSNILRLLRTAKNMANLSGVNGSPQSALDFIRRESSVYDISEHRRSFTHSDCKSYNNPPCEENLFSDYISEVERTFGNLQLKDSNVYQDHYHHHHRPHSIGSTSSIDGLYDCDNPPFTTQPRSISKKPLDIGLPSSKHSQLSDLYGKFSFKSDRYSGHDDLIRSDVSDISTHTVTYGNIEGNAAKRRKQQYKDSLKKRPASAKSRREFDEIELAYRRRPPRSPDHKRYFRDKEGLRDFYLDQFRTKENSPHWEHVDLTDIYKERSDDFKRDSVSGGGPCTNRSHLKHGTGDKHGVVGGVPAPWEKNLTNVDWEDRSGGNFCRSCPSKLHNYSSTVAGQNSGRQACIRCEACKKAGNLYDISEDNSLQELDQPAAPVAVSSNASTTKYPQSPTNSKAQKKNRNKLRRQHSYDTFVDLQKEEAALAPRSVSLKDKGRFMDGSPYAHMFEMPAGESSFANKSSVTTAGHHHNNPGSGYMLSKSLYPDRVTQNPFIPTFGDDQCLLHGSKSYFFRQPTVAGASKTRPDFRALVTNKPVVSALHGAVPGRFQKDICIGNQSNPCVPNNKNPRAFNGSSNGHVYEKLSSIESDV
# Source text: as §1, §2, §3, §4
# [4] = test system: subchronic PCP-induced cognitive deficits in mice; assay: T-maze continuous alternation task in subchronic PCP mice; format: in vivo, Swiss CD-1 mice; settings: n=10
# Source text: Phenycyclidine (PCP) is an antagonist of NMDA receptor, its administration in healthy humans produces schizophrenia-like symptoms, therefore PCP is often used to mimic schizophrenia in rodents. […] In addition, brain samples were collected shorlty after the T-Maze test to measure the levels of cerebral biomarkers involved in synaptic plasticity.
# Sixty (60) male Swiss CD-1 mice were purchased from Janvier Labs (Le Genest-Saint-Isle, France) one week before the start of the study for acclimation. Mice were group-housed (6-8 mice per Eurostandard type Ill cage) and maintained in a room with controlled temperature (21-22° C.) under a reversed 12 h/12 h light-dark cycle (lights on: 5:[…]; lights off: 05:30 am) with food and water available ad libitum. The weight of mice ranged from 25.9 and 36.4 g. […]
# Nicotine used as a positive control was administered at a dose of 0.4 mg/kg intraperitoneally 30 minutes prior to the T-maze trial
# After administration of compounds at different timepoints all animals were tested for continuous alternation task in the T-Maze. The T-maze apparatus was made of gray Plexiglas with a main stem (55-cm long×10-cm wide×20-cm high) and two arms (30-cm long×10-cm wide×20-cm high) positioned at a 90-degree angle relative to the main stem. A start box (15-cm long×10-cm wide) was separated from the main stem by a guillotine door. Horizontal doors were also provided to close specific arms during the force choice alternation task. The experimental protocol consisted in one single session that started with 1 “forced-choice” trial, followed by 14 “free-choice” trials (Gerlai, 1998). In the first “forced-choice” trial, the mouse was confined 5 s in the start arm and then released while either the left or right goal arm was blocked by closing the sliding door. Then, it walked through the maze, eventually entered the open goal arm, and then returned to the start position. Immediately after the mouse came back to the start position, the left or right goal door was opened (i.e. the two goal doors were opened), and the mouse could choose freely between the left and right goal arms (first “free choice trial”). The mouse was considered as entered in the arm when it placed its four paws in the arm. The opposite goal door was then closed until the animal returned to the start arm. Then, a second “free choice trial” began by the opening of the closed goal door (i.e. the two goal doors were opened), leaving the choice to the mouse to enter either into the right or the left arm. The session was considered finished as soon as 14 free-choice trials had been performed in less than 10 min, and the mouse was removed from the maze. The time needed to reach these 14 “free-choices” was recorded.
# The percent of spontaneous alternations was calculated as number of spontaneous alternations divided by the number of free-choice trials, an index of spatial short-term working memory. The apparatus was cleaned between each animal using alcohol (70%). Urine and feces were removed from the maze. During the trials, animal handling and the visibility of the operator were minimized as much as possible. Animals were tested in a random and blind manner.
# [5] = test system: scopolamine-induced spatial short-term working memory deficits in mice; assay: Y-maze spontaneous alternation in the scopolamine mouse model of amnesia; format: in vivo, Swiss mice; settings: for spontaneous alternance in Y-maze: n=6; for effect on scopolamine-induced spatial short-term working memory impairments (Y-maze): data not shown
# Procedure: Male Swiss mice, weighing 30-35 g, from JANVIER (Saint Berthevin, France), were housed in groups with access to food and water ad libitum, except during behavioral experiments. They were kept in a temperature and humidity-controlled animal facility on a 12 h/12 h light/dark cycle (lights off at 07:[…]). Mice were numbered by marking their tail with permanent markers. All animal procedures were conducted in strict adherence to the European Union directive of Sep. 22, 2010 (2010/63/UE). In each cage (n=6 per cage), treatment regimen was the same. Animals were tested in a random and blind manner.
# Donepezil (DPZ) used as positive control was administered per os at a dose of 1 mg/kg once 1 h before the YM test.
# Scopolamine was administered at a dose of 0.5 mg/kg by subcutaneous injection 30 minutes before the YM session.
# After administration of compounds at different timepoints all animals were tested for spontaneous alternation performance in the YM, an index of spatial working memory. The YM was designed according to Itoh and collaborators (1993) and Hiramatsu and Inoue (1999) and is made of grey polyvinylchloride. Each arm is 40-cm long, 13-cm high, 3-cm wide at the bottom, 10-cm wide at the top, and converging at an equal angle. Each mouse was placed at the end of one arm and allowed to move freely through the maze during an 8-min session. The series of arm entries, including possible returns into the same arm, were checked visually. An alternation was defined as entries into all three arms on consecutive occasions. The number of maximum alternations is therefore the total number of arm entries minus two and the percentage of alternation was calculated as (actual alternations/maximum alternations)×100. Parameters included the percentage of alternation, called memory index, and total number of arm entries, called exploration index (Maurice et al., 1996, 1988; Meunier et al., 2006; Villard et al., 2009, 2011).
# Animals showing an extreme behavior (alternation percentage <20% or >90% or number of arm entries <10) would have been discarded from the calculation. No animal was discarded accordingly.
compound,measurement,setting,value
CC(C(O)c1ccc(O)cc1)N1CCC(Cc2ccccc2)CC1 (stereo not shown) [Ifenprodil],Normalized amplitude of evoked isolated NMDA excitatory postsynaptic currents,[1],78.74 % of control
same,NMDA EPSCs amplitude,[2]; NVP-AAM077 0.4 μM + Ifenprodil 3 μM,significantly decreased
C[C@H](NC(c1cccc2[nH]c(=O)c(=O)[nH]c12)P(=O)(O)O)c1ccc(Br)cc1 (stereo partly shown) [NVP-AAM077],Normalized amplitude of evoked isolated NMDA excitatory postsynaptic currents,[3],56.35 % of control
same,NMDA EPSCs amplitude,[2]; NVP-AAM077 0.4 μM,significantly decreased
"CN1CCCC1c1cccnc1 (stereo not shown) [Nicotine, reference compound]",Spontaneous alternations in T-maze,"[4]; PCP + 0.4 mg/kg i.p. 30 min before trial (D14), PCP alone 30.71, control 66.43, 0.4 mg/kg",62% and 62.14%
"c1ccc(C2(N3CCCCC3)CCCCC2)cc1 [PCP, phencyclidine, reference compound]",Spontaneous alternations in T-maze,"[4]; PCP 0.2 mg/kg s.c. twice daily D1-D11, vehicle-treated, saline control 66.43",31% and 30.71%
"CN1[C@@H]2C[C@@H](OC(=O)[C@H](CO)c3ccccc3)C[C@H]1[C@@H]1O[C@@H]12 [Scopolamine, reference compound]",spontaneous alternance in Y-maze,"[5]; scopolamine 0.5 mg/kg s.c. 30 min before test, alone, control 70, mean",45%
W-S-G-W-S-S-C-S-R-S-C-G [NX210] (WSGWSSCSRSCG; reduced linear form),effect on scopolamine-induced spatial short-term working memory impairments (Y-maze),[5]; 15 mg/kg i.p. once 48 h before the test,maintained but less pronounced
same,effect on scopolamine-induced spatial short-term working memory impairments (Y-maze),[5]; administered i.p. 2 h or 1 h before the test,No effect
same,effect on scopolamine-induced spatial short-term working memory impairments (Y-maze),[5]; dose lower than 10 mg/kg i.p.,No effect
same,dose with maximum effect on scopolamine-induced memory impairments (Y-maze),"[5]; i.p. once 24 h before the test, bell-shaped dose-response curve",15 mg/kg
same,spontaneous alternance in Y-maze,"[5]; scopolamine + 10 mg/kg i.p. 24 h before test, scopolamine alone 45, control 70, 10 mg/kg",59%
same,spontaneous alternance in Y-maze,"[5]; scopolamine + 15 mg/kg i.p. 24 h before test, scopolamine alone 45, control 70, 15 mg/kg",69%
